Assays:
U87MG cells = experiment: Intracranial tumor growth and survival, transduced U87MG cells in Rag-1 mice; assay type: in vivo, human; conditions: single dose BCNU 10 mg/kg iv or TMZ 5 mg/kg ip
Description: (§1) FIG. 12. Antagonists of CD44 are effective therapeutic agents against human GBM in mouse models. A, U87MG and U251 cells were transduced with the retroviruses carrying empty vector and the expression constructs of hsCD44s-Fc, hsCD44v8-v10-Fc, and hsCD44v3-v10 and their serum free cell culture supernatants were collected and analyzed on Western blots using anti-CD44 antibody (Santa Cruz) or anti-human IgG antibody. The molecular weight bars correspond to 199 kDa and 116 kDa. B, 2×10^6 of the transduced U87MG and U251 cells were injected subcutaneously per mouse. Growth rates of the subcutaneous tumors were determined and expressed as the mean of tumor volume (mm^3)+/−SD. Six mice were used for each construct. C, Survival rates of mice following the intracranial injections of transduced U87MG (C-a) and U251 (C-b-c) cells infected with the retroviruses carrying the empty expression vectors, hsCD44s-Fc, hsCD44v8-v10-Fc, hsCD44v3-v10, hsCD44sR41A-Fc, or hsCD44v3-v10R41A-Fc constructs as indicated in the panels. […]
(§2) Mice were used in accordance with the approved IACUC Protocol. […] Following injection, mice were closely monitored and the duration of their survival was recorded. […] Number of surviving mice was recorded. The survival rates were calculated as follows: survival rate (%)=(number of mice still alive/total number of experimental mice)×100%. […]

U251 cells = experiment: Intracranial tumor growth and survival, transduced U251 cells in Rag-1 mice; assay type: in vivo, human; conditions: single dose BCNU 10 mg/kg iv or TMZ 5 mg/kg ip
Description: as §1, §2

## O=NN(CCCl)C(=O)NCCCl [BCNU, carmustine]
U87MG cells; intracranial U87MG-Luc depleted of CD44
  inhibition of intracranial glioma formation (median survival), drug combined with CD44 knockdown: synergistic inhibition of intracranial glioma formation
U87MG cells; intracranial U87MG-Luc
  inhibitory effect on glioma growth as single agent: weak
U251 cells; intracranial U251-Luc depleted of CD44
  inhibition of intracranial glioma formation (median survival), drug combined with CD44 knockdown: synergistic inhibition of intracranial glioma formation
U251 cells; intracranial U251-Luc
  inhibitory effect on glioma growth as single agent: weak

Source: patent US20120207753A1, “METHODS OF USING CD44 FUSION PROTEINS TO TREAT CANCER” (CENTRE HOSPITALIER UNIVERSITAIRE VAUDOIS, priority 2009, published 2012)
